From patent US9192666B2, “Method of treating cancer using anti-c-Met antibody and FGFR inhibitor combination therapy” (Samsung Electronics Co., Ltd., priority 2013, dated 2015) come the findings set out here.

In assay [1] the test system is MKN45 gastric cancer cells. The assay is described as follows: Tumor xenograft model of MKN45 gastric cancer cell line. In kind it is in vivo, BALB/c nude mice. To be noted: 21st day after treatment vs vehicle, BGJ398 10 mg/kg P.O. once a day, L3-1Y/IgG2 1 mg/kg I.V. once a week. As for the experimental part: To verify the in vivo effect of the co-administration on tumor growth, a tumor xenograft model was prepared using male 5-6 week-old BALB/c nude mice (Pharmalegacy, China). The mice were adapted at least one week before inoculation of tumor cells.
Then, the mice were anesthetized with 1-2% isofurane, and MKN45 gastric cancer cells (JCRB, JCRB0254) were subcutaneously injected into right flank of the mice at the amount of 5×10^6 cells/each mouse. 7 days after, when the average size of tumor reaches 50 mm^3 or more, the mice were grouped into the following groups: a group treated with BGJ398 (10 mg/kg P.O., once a day), a group treated with L3-1Y/IgG2 (1 mg/kg I.V., once a week), a group co-treated with L3-1Y/IgG2 (1 mg/kg, I.V., once a week) and BGJ398 (10 mg/kg, P.O., once a day), and a group (control) treated with vehicle (PBS 0.2 ml, I.V., once a week). Each group consisted of 10 mice.
The experiment was performed for 4 weeks in total, and tumor size and body weight of the mice were measured twice a week. The tumor volume (V) was calculated by the following formula: V(mm^3)={length of long axis(mm)×(length of short axis(mm))^2}/2.

In assay [2] the test system is L3-1Y/IgG2 resistant MKN45 cells. Description: Cell viability in L3-1Y/IgG2 resistant MKN45 cells. The conditions noted are these: 72 hours, PD173074 10 uM, BGJ398 5 uM. It counts as cell-based. As for the experimental part: To verify that the co-treatment with a FGFR inhibitor allows overcoming a L3-1Y/IgG2 resistance acquired by repeated treatment of L3-1Y/IgG2, L3-1Y/IgG2 resistant cells were prepared by treating L3-1Y/IgG2 to MKN45 gastric cancer cell line for at least 3 months, and used for the following experiment. The L3-1Y/IgG2 resistant cells were prepared as follows: MKN45 cells (JCRB, JCRB0254) were treated with L3-1Y/IgG2, where the concentration of treated L3-1Y/IgG2 was increased from 1 ug/ml to 10 ug/ml, until the resistance is acquired. To verify the acquirement of resistance to L3-1Y/IgG2, the resistance acquired clones were cultured with or without L3-1Y/IgG2 treatment, and at 72 hours after the treatment, the cell number was measured by CellTiter Glo assay (Promega, G7573), referring to the above example,
The synergistic effect of co-treatment of a FGFR inhibitor and L3-1Y/IgG2 was verified as follows. The prepared L3-1Y/IgG2 resistant MKN45 cells were seeded at the amount of 5,000 cells/well on 96 well plate to which RPMI1640 medium (GIBCO) supplemented with 10% FBS is added, and incubated overnight at 37° C. Next day (24 hours after), the incubated cells were treated with L3-1Y/IgG2 alone or together with FGFR inhibitor, PD173074 or BGJ398. For the treatment of L3-1Y/IgG2 only, the concentration of L3-1Y/IgG2 was 0 ug/ml, 0.016 ug/ml, 0.08 ug/ml, 0.4 ug/ml, or 2 ug/ml, and for the co-treatment, the concentration of the FGFR inhibitor was fixed and the concentration of L3-1Y/IgG2 was 0 ug/ml, 0.016 ug/ml, 0.08 ug/ml, 0.4 ug/ml, or 2 ug/ml. The concentration of the FGFR inhibitor was fixed at 10 uM for PD173074 and 5 uM for BGJ398.
(§1) At 72 hours after the single treatment or the co-treatment, 100 uL of CellTiter Glo solution (Promega, G7572) was added to each well, and left for 30 minutes at room temperature. The cell number was counted by emission signal, and the emission signal was recorded using Envision 2104 Multi-label Reader (Perkin Elmer).

Assay [3] deals with L3-1Y/IgG2 resistant EBC1 cells. The assay is described as follows: Cell viability in L3-1Y/IgG2 resistant EBC1 cells. It counts as cell-based. The conditions noted are these: 72 hours, BGJ398 5 uM. As for the experimental part:
To verify that the co-treatment with a FGFR inhibitor allows overcoming a L3-1Y/IgG2 resistance acquired by repeated treatment of L3-1Y/IgG2, L3-1Y/IgG2 resistant cells were prepared by treating L3-1Y/IgG2 to EBC1 lung cancer cell line for at least 3 months, and used for the following experiment. The EBC1 lung cancer cell line acquiring the resistant to L3-1Y/IgG2 was prepared referring to Example 4.
The synergistic effect of co-treatment of a FGFR inhibitor and L3-1Y/IgG2 was verified as follows. The prepared L3-1Y/IgG2 resistant EBC1 cells were seeded at the amount of 5,000 cells/well on a 96 well plate to which RPMI1640 medium (GIBCO) supplemented with 10% FBS is added, and incubated overnight at 37° C. Next day (24 hours after), the incubated cells were treated with L3-1Y/IgG2 alone or together with FGFR inhibitor, BGJ398. […]
as §1

Assay [4] deals with MKN45 gastric cancer cells. The assay is described as follows: Cell viability (CellTiter Glo) in MKN45 gastric cancer cell line. In kind it is cell-based. To be noted: for cell growth inhibition: MKN45, 72 hours, L3-1Y/IgG2 0-2 ug/ml, PD173074 fixed at 10 uM. As to the method: In particular, RPMI1640 medium (GIBCO) containing 10% FBS was put in a 96 well plate. MKN45 gastric cancer cells (JCRB, JCRB0254) were seeded thereon in the amount of 5,000 cells/well, and incubated overnight at 37° C. After 24 hours (the next day), the incubated cells were treated with L3-1Y/IgG2 (Reference Example 1) alone, or co-treated with L3-1Y/IgG2 and a FGFR inhibitor, PD173074. For the single treatment of L3-1Y/IgG2 alone, the concentration of L3-1Y/IgG2 was 0 ug (microgram)/ml, 0.016 ug/ml, 0.08 ug/ml, 0.4 ug/ml, or 2 ug/ml, and for the co-treatment of L3-1Y/IgG2 and PD173074, the concentration of PD173074 was fixed at 10 uM (micromole) which is a concentration of IC20 in MKN45 cell line, and the concentration of L3-1Y/IgG2 was 0 ug/ml, 0.016 ug/ml, 0.08 ug/ml, 0.4 ug/ml, or 2 ug/ml.
At 72 hours after the single treatment or the co-treatment, 100 uL (microliter) of CellTiter Glo solution (Promega, G7572) was added to each well, and left for 30 minutes at room temperature. The cell number was counted by emission signal, and the emission signal was recorded using Envision 2104 Multi-label Reader (Perkin Elmer).
A general note: Cellular ATP, detected with luciferase, serves as a proxy for viable cell number.

The subject of a further assay is EBC1 lung cancer cells. The assay is described as follows: Cell viability (CellTiter Glo) in EBC1 lung cancer cell line. It counts as cell-based. To be noted: 72 hours, L3-1Y/IgG2 0-2 ug/ml, PD173074 10 uM or BGJ398 5 uM. As to the method: (§2) In particular, RPMI1640 medium (GIBCO) containing 10% FBS were put in 96 well plate. EBC1 lung cancer cells (JCRB, JCRB0820) were seeded thereon in the amount of 5,000 cells/well, and incubated overnight at 37° C. After 24 hours (the next day), the incubated cells were treated with L3-1Y/IgG2 (Reference Example 1) alone, or co-treated with L3-1Y/IgG2 and a FGFR inhibitor, PD173074 or BGJ398. For the single treatment of L3-1Y/IgG2 alone, the concentration of L3-1Y/IgG2 was 0 ug/ml, 0.016 ug/ml, 0.08 ug/ml, 0.4 ug/ml, or 2 ug/ml, and for the co-treatment of L3-1Y/IgG2 and PD173074 or BGJ398, the concentration of PD173074 was fixed at 10 uM for PD173074 and 5 uM for BGJ398, and the concentration of L3-1Y/IgG2 was 0 ug/ml, 0.016 ug/ml, 0.08 ug/ml, 0.4 ug/ml, or 2 ug/ml.
as §1

A further assay has as its system HT29 colon cancer cells. Description: Cell viability (CellTiter Glo) in HT29 colon cancer cell line. In kind it is cell-based. The conditions noted are these: 72 hours, L3-1Y/IgG2 0-2 ug/ml, PD173074 fixed at 5 uM. As for the experimental part: as §2, with “HT29 colon” for “EBC1 lung”, “(ATCC, HTB-38)” for “(JCRB, JCRB0820)”, “PD173074.” for “PD173074 or BGJ398.”, “PD173074,” for “PD173074 or BGJ398,”, “at” for “at 10 uM for PD173074 and”, “uM,” for “uM for BGJ398,”
as §1

In the case of `CCN1CCN(c2ccc(Nc3cc(N(C)C(=O)Nc4c(Cl)c(OC)cc(OC)c4Cl)ncn3)cc2)CC1` [BGJ398, 3-(2,6-dichloro-3,5-dimethoxyphenyl)-1-(6-(4-(4-ethylpiperazin-1-yl)phenylamino)pyrimidin-4-yl)-1-methylurea, reference compound], in assay [1], the “tumor inhibition rate, At d21:TV” value was found to be 1.3%. Further, the “cancer cell growth inhibitory effect” value in assay [2] and in assay [3] was “not obtained” throughout.
Take `CCN(CC)CCCCNc1ncc2cc(-c3cc(OC)cc(OC)c3)c(NC(=O)NC(C)(C)C)nc2n1` [PD173074, N-[2-[[4-(Diethylamino)butyl]amino]-6-(3,5-dimethoxyphenyl)pyrido[2,3-d]pyrimidin-7-yl]-N′-(1,1-dimethylethyl)urea]: the IC20 in assay [4] (Homo sapiens, MKN-45, read-out: concentration of IC20 in MKN45 cell line) was found to be 10 µM. Moreover, the cell growth inhibition result in assay [4] is listed as “no significant effect on cell growth”. Also, the “cancer cell growth inhibitory effect” value in assay [2] was “not obtained”.

B1: L3-1Y/IgG2: anti-c-Met antibody: huAbF46-H4-A1 heavy chain variable region, human IgG2 hinge and constant region, kappa light chain (antibody)
heavy: EVQLVESGGGLVQPGGSLRLSCAASGFTFTDYYMSWVRQAPGKGLEWLGFIRNKANGYTTEYSASVKGRFTISRDNSKNTLYLQMNSLRAEDTAVYYCARDNWFAYWGQGTLVTVSSASTKGPSVFPLAPCSRSTSESTAALGCLVKDYFPEPVTVSWNSGALTSGVHTFPAVLQSSGLYSLSSVVTVPSSNFGTQTYTCNVDHKPSNTKVDKTVERKCCVECPPCPAPPVAGPSVFLFPPKPKDTLMISRTPEVTCVVVDVSHEDPEVQFNWYVDGVEVHNAKTKPREEQFNSTFRVVSVLTVVHQDWLNGKEYKCKVSNKGLPAPIEKTISKTKGQPREPQVYTLPPSREEMTKNQVSLTCLVKGFYPSDIAVEWESNGQPENNYKTTPPMLDSDGSFFLYSKLTVDKSRWQQGNVFSCSVMHEALHNHYTQKSLSLSPGK
light: DIQMTQSPSSLSASVGDRVTITCKSSQSLLASGNQNNYLAWYQQKPGKAPKMLIIWASTRVSGVPSRFSGSGSGTDFTLTISSLQPEDFATYYCQQSYSRPYTFGQGTKVEIKRTVAAPSVFIFPPSDEQLKSGTASVVCLLNNFYPREAKVQWKVDNALQSGNSQESVTEQDSKDSTYSLSSTLTLSKADYEKHKVYACEVTHQGLSSPVTKSFNRGEC
As to B1, the cell growth inhibition entry is “cell growth inhibiting effect is observed” in the assay with EBC1 lung cancer cells and “cell growth inhibition is observed” in assay [4]. Further, in assay [1], the “tumor inhibition rate, At d21:TV” value is 27.8%. In addition, the “cancer cell growth inhibitory effect” value in assay [2] and in assay [3] was “not obtained” in each case. Besides, the “cell growth inhibiting effect” value with HT29 colon cancer cells is “not observed”.
